Consider eleven compounds from US20220363665A1, “QUINOLINE COMPOUNDS FOR THE TREATMENT OF AUTOIMMUNE DISEASE” (Hoffmann-La Roche Inc., priority 2019, published 2022).

One data set deals with T1, human TLR9 (Homo sapiens, UniProt Q9NR96).
T1 construct: host or cells: HEK293 (HEK-Blue hTLR9)
T1 sequence (Q9NR96 26-1032): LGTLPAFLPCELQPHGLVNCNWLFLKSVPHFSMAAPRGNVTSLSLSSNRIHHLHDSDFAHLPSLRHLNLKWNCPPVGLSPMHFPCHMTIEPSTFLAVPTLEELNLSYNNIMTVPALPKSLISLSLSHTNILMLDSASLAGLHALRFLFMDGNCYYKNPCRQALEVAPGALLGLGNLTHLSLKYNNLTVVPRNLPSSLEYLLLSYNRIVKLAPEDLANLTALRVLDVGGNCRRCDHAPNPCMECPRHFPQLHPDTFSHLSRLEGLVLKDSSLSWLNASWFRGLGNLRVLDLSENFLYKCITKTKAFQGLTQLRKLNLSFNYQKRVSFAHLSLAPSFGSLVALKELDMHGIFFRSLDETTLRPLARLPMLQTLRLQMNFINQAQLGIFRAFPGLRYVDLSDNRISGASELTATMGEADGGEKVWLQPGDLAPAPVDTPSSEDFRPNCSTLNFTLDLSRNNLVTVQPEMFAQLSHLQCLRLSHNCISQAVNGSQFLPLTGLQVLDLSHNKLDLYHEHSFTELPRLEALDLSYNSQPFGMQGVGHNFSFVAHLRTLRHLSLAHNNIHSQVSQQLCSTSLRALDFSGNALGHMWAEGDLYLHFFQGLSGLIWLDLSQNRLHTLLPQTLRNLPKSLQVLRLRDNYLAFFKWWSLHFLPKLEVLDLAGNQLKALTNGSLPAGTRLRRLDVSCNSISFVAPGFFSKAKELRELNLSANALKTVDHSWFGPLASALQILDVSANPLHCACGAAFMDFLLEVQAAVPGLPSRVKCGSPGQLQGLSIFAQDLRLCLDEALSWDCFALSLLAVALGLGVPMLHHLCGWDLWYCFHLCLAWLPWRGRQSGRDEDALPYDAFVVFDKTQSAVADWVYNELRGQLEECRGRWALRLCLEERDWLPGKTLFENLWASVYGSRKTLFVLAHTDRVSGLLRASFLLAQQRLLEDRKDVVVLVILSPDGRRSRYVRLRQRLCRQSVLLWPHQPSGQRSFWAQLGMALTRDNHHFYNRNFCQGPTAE
Briefly: HEK293-Blue-hTLR-9 cells assay (SEAP reporter, ODN2006 stimulation). The format is cell-based. The conditions noted are these: HEK293-Blue-hTLR9 cells, ODN2006, 20 hrs. As to the method: The following tests were carried out in order to determine the activity of the compounds of formula (I) in HEK293-Blue-hTLR-7/8/9 cells assay.
HEK293-Blue-hTLR-9 Cells Assay:
A stable HEK293-Blue-hTLR-9 cell line was purchased from InvivoGen (Cat. #. hkb-htlr9, San Diego, Calif., USA). These cells were originally designed for studying the stimulation of human TLR9 by monitoring the activation of NF-κB. A SEAP (secreted embryonic alkaline phosphatase) reporter gene was placed under the control of the […] minimal promoter fused to five NF-κB and AP-1-binding sites. The SEAP was induced by activating NF-κB and AP-1 via stimulating HEK-Blue hTLR9 cells with TLR9 ligands. Therefore the reporter expression was declined by TLR9 antagonist under the stimulation of a ligand, such as ODN2006 (Cat. #: tlrl-2006-1, Invivogen, San Diego, Calif., USA), for incubation of 20 hrs. The cell culture supernatant SEAP reporter activity was determined using QUANTI-Blue™ kit (Cat. #: rep-qbl, Invivogen, San Diego, Calif., USA) at a wavelength of 640 nm, a detection medium that turns purple or blue in the presence of alkaline phosphatase.
HEK293-Blue-hTLR9 cells were incubated at a density of […] cells/mL in a volume of 170 μL, in a 96-well plate in Dulbecco's Modified Eagle's medium (DMEM) containing 4.5 g/L glucose, 50 U/mL penicillin, […], […], 2 mM L-glutamine, 10% (v/v) heat-inactivated fetal bovine serum with addition of 20 μL test compound in a serial dilution in the presence of final DMSO at 1% and 10 μL of 20 uM ODN2006 in above DMEM, perform incubation under 37° C. in a CO2 incubator for 20 hrs. Then 20 μL of the supernatant from each well was incubated with 180 μL Quanti-blue substrate solution at 37° C. for 2 hrs and the absorbance was read at 620˜655 nm using a spectrophotometer. The signalling pathway that TLR9 activation leads to downstream NF-κB activation has been widely accepted, and therefore similar reporter assay was modified for evaluating TLR9 antagonist.

Data set [1] is described as follows: Human microsome stability assay. The format is in vitro ADME. The conditions noted are these: 1 μM test compound, 0.5 mg/mL protein. As to the method:
The human microsomal stability assay is used for early assessment of metabolic stability of a test compound in human liver microsomes.
Human liver microsomes (Cat. NO.: 452117, Corning, USA; Cat. NO.: H2610, Xenotech, USA) were preincubated with test compound for 10 minutes at 37° C. in 100 mM potassium phosphate buffer, pH 7.4. The reactions were initiated by adding NADPH regenerating system. The final incubation mixtures contained 1 μM test compound, 0.5 mg/mL liver microsomal protein, 1 mM MgCl2, 1 mM NADP, 1 unit/mL isocitric dehydrogenase and 6 mM isocitric acid in 100 mM potassium phosphate buffer, pH 7.4. After incubation times of 0, 3, 6, 9, 15 and 30 minutes at 37° C., 300 μL of cold ACN (including internal standard) was added to 100 μL incubation mixture to terminate the reaction. Following precipitation and centrifugation, the amount of compound remaining in the samples were determined by LC-MS/MS. Controls of no NADPH regenerating system at zero and 30 minutes were also prepared and analyzed. The results were categorized as: low (<7.0 mL/min/kg), medium (7.0˜16.2 mL/min/kg) and high (16.2-23.2 mL/min/kg).

Broadly, the IC50 is the concentration that inhibits the measured activity by half.

On human TLR9, `C[C@@H]1CN(c2ccc(C(F)(F)F)c3ncccc23)C[C@H](C(=O)NC2CCN(C)CC2)O1` [Example 5, (2R,6R)-6-methyl-N-(1-methyl-4-piperidyl)-4-[8-(trifluoromethyl)-5-quinolyl]morpholine-2-carboxamide] gave an IC50 of 15.5 µM. Also, the “clearance in human liver microsomes” value in data set [1] turned out to be 6.15 mL/min/kg.

With `C[C@@H]1CN(c2ccc(C(F)(F)F)c3ncccc23)C[C@H](C(=O)NC2CCCNCC2)O1` (stereo partly drawn) [Example 8, (2R,6R)-N-(azepan-4-yl)-6-methyl-4-[8-(trifluoromethyl)-5-quinolyl]morpholine-2-carboxamide], the IC50 against human TLR9 turned out to be 10.3 µM. The “clearance in human liver microsomes” value in data set [1] came to 6.15 mL/min/kg.

`C[C@@H]1CN(c2ccc(Cl)c3ncccc23)C[C@H](C(=O)N[C@H]2CNC[C@H]2F)O1` [Example 22, (2R,6R)-4-(8-chloro-5-quinolyl)-N-[(3S,4R)-4-fluoropyrrolidin-3-yl]-6-methyl-morpholine-2-carboxamide] showed an IC50 against human TLR9 of 37 µM. For the same compound, the “clearance in human liver microsomes” value in data set [1] was 6.15 mL/min/kg.

Take `C[C@@H]1CN(c2ccc(Cl)c3ncccc23)C[C@H](C(=O)NC2CCCNCC2)O1` (stereo partly drawn) [Example 25, (2R,6R)-N-(azepan-4-yl)-4-(8-chloro-5-quinolyl)-6-methyl-morpholine-2-carboxamide]: inhibition at human TLR9 was half-maximal at 12.4 µM (IC50). Moreover, the “clearance in human liver microsomes” value in data set [1] is 7.16 mL/min/kg.

At human TLR9, `C[C@@H]1CN(c2ccc(C(F)(F)F)c3ncccc23)C[C@H](C(=O)N[C@@H]2CNC[C@@H]2F)O1` (single isomer, unassigned) [Example 2A] displayed an IC50 of 41 µM. The “clearance in human liver microsomes” value in data set [1] came to 6.15 mL/min/kg.

The compound `C[C@H]1C[C@@H](N)CN(c2ccc(C(F)(F)F)c3ncccc23)C1` [Example 1, (3R,5S)-5-methyl-1-[8-(trifluoromethyl)-5-quinolyl]piperidin-3-amine] registered an IC50 against human TLR9 of 9.7 µM. In data set [1], the “clearance in human liver microsomes” value came to 6.15 mL/min/kg.

As to `C[C@@H]1CN(c2ccc(C(F)(F)F)c3ncccc23)C[C@H](C(=O)NCC(C)(C)N)O1` [Example 6, (2R,6R)-N-(2-amino-2-methyl-propyl)-6-methyl-4-[8-(trifluoromethyl)-5-quinolyl]morpholine-2-carboxamide], half-maximal inhibition against human TLR9 (IC50) was put at 29.8 µM. Besides, the “clearance in human liver microsomes” value in data set [1] turned out to be 6.15 mL/min/kg.

Take `C[C@@H]1CN(c2ccc(Cl)c3ncccc23)C[C@H](C(=O)NCC2CN(C)CCO2)O1` (stereo partly drawn) [Example 26, (2R,6R)-4-(8-chloro-5-quinolyl)-6-methyl-N-[(4-methylmorpholin-2-yl)methyl]morpholine-2-carboxamide]: the IC50 against human TLR9 was found to be 46 µM. Further, the “clearance in human liver microsomes” value in data set [1] came to 6.15 mL/min/kg.

For `C[C@@H]1CN(c2ccc(C(F)(F)F)c3ncccc23)C[C@H](C(=O)NC2C3CCC2CNC3)O1` (stereo partly drawn) [Example 31, (2R,6R)-N-(3-azabicyclo[3.2.1]octan-8-yl)-6-methyl-4-[8-(trifluoromethyl)-5-quinolyl]morpholine-2-carboxamide], on human TLR9, the IC50 is 9.2 µM. The “clearance in human liver microsomes” value in data set [1] is 6.15 mL/min/kg.

On human TLR9, `Cc1ccc(N2C[C@@H](C)O[C@@H](C(=O)NCC3CN(C)CCO3)C2)c2cccnc12` (stereo partly drawn) [Example 17, (2R,6R)-6-methyl-N-[(4-methylmorpholin-2-yl)methyl]-4-(8-methyl-5-quinolyl)morpholine-2-carboxamide] returned a half-inhibitory concentration (IC50) of over 100 µM. Moreover, the “clearance in human liver microsomes” value in data set [1] was 6.15 mL/min/kg.

In turn, `C[C@@H]1CN(c2ccc(C(F)(F)F)c3ncccc23)C[C@H](C(=O)NC2CC3CNCC32)O1` (single isomer, unassigned) [Example 49C] registered an IC50 against human TLR9 of 7.7 µM. The “clearance in human liver microsomes” value in data set [1] came out at 6.15 mL/min/kg.
